Measured values published in ChEMBL document CHEMBL1201862, “PubChem BioAssay data set” (2004).
The source made the active and inactive calls.

What was measured:
Type in all cases: functional
[1] = target: DNA dC->dU-editing enzyme APOBEC-3G (Homo sapiens, UniProt Q9HC16); assay: SAR analysis of small molecule inhibitors of APOBEC3G DNA Deaminase via a fluorescence-based single-stranded DNA deaminase assay - Set 2.; conditions: read-out: IC50_Mean
[2] = target: DNA dC->dU-editing enzyme APOBEC-3A (Homo sapiens, UniProt P31941); assay: SAR analysis of small molecule inhibitors of APOBEC3A DNA Deaminase via a fluorescence-based single-stranded DNA deaminase assay - Set 2.; conditions: read-out: IC50_Mean
[3] = target: High affinity nerve growth factor receptor (Homo sapiens, UniProt P04629);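 note: NTRK1 tested as one member of a kinome-wide profiling panel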
[4] = target: Serine/threonine-protein kinase N2 (Homo sapiens, UniProt Q16513)
[5] = target: Leucine-rich repeat serine/threonine-protein kinase 2 (Homo sapiens, UniProt Q5S007);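 note: value from a broad kinome-wide panel profiling study in which LRRK2 was one of the kinases tested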
[6] = target: Dual specificity mitogen-activated protein kinase kinase 1 (Homo sapiens, UniProt Q02750); assay: Navigating the Kinome. Panel member name: MAP2K1
[7] = target: Cyclin-dependent kinase 8 (Homo sapiens, UniProt P49336); assay: Navigating the Kinome. Panel member name: CDK8
[8] = target: Tyrosine-protein kinase ABL1 (Homo sapiens, UniProt P00519)
[9] = target: Cyclin-dependent kinase 5 (Homo sapiens, UniProt Q00535);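 note: CDK5 measured as one member of a kinase profiling panel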
[10] = target: Receptor-type tyrosine-protein kinase FLT3 (Homo sapiens, UniProt P36888);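 note: FLT3 was tested as one member of a kinome-wide kinase panel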
[11] = target: Vascular endothelial growth factor receptor 1 (Homo sapiens, UniProt P17948);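 note: measured within a kinome-wide profiling panel, FLT1 as the panel member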
[12] = target: Mitogen-activated protein kinase kinase kinase kinase 5 (Homo sapiens, UniProt Q9Y4K4);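 note: measured as one member of a kinome-spanning kinase panel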
[13] = target: BDNF/NT-3 growth factors receptor (Homo sapiens, UniProt Q16620);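 note: NTRK2 measured as one member of a broad kinome-wide kinase profiling panel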
[14] = target: Mitogen-activated protein kinase kinase kinase kinase 4 (Homo sapiens, UniProt O95819)
[15] = target: Serine/threonine-protein kinase pim-1 (Homo sapiens, UniProt P11309)
[16] = target: G protein-coupled receptor kinase 5 (Homo sapiens, UniProt P34947); assay: Navigating the Kinome. Panel member name: GPRK5
[17] = target: Platelet-derived growth factor receptor alpha (Homo sapiens, UniProt P16234); assay: Navigating the Kinome. Panel member name: PDGFRA
[18] = target: Mitogen-activated protein kinase kinase kinase kinase 2 (Homo sapiens, UniProt Q12851);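 note: measured as one member of a kinome-wide kinase panel, with MAP4K2 as the panel entry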
[19] = target: Dual specificity protein kinase CLK2 (Homo sapiens, UniProt P49760)
[20] = target: Tyrosine-protein kinase BTK (Homo sapiens, UniProt Q06187)
[21] = target: Glycogen synthase kinase-3 alpha (Homo sapiens, UniProt P49840);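 note: GSK3A result taken from a broad kinome-wide kinase panel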
[22] = target: Dual specificity tyrosine-phosphorylation-regulated kinase 1A (Homo sapiens, UniProt Q13627);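 note: measured against DYRK1A as one member of a broad kinome profiling panel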
[23] = target: Proto-oncogene tyrosine-protein kinase receptor Ret (Homo sapiens, UniProt P07949);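 note: measured within a kinome-wide profiling panel, RET as the panel member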
[24] = target: Macrophage-stimulating protein receptor (Homo sapiens, UniProt Q04912); assay: Navigating the Kinome. Panel member name: MST1R
Activated CDC42 kinase 1 = Activated CDC42 kinase 1 (Homo sapiens, UniProt Q07912); assay: Navigating the Kinome. Panel member name: ACK1
[25] = target: Serine/threonine-protein kinase TBK1 (Homo sapiens, UniProt Q9UHD2); assay: Navigating the Kinome. Panel member name: TBK1
[26] = target: Protein kinase C theta type (Homo sapiens, UniProt Q04759); assay: Navigating the Kinome. Panel member name: PRKCQ
[27] = target: Mitogen-activated protein kinase 9 (Homo sapiens, UniProt P45984);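 note: value from a kinome panel profiling assay, MAPK9 panel entry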
[28] = target: Mitogen-activated protein kinase 8 (Homo sapiens, UniProt P45983);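 note: value comes from one member of a kinome-wide kinase profiling panel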
[29] = target: Calcium/calmodulin-dependent protein kinase type II subunit alpha (Homo sapiens, UniProt Q9UQM7); assay: Navigating the Kinome. Panel member name: CAMK2A
[30] = target: Leukocyte tyrosine kinase receptor (Homo sapiens, UniProt P29376); assay: Navigating the Kinome. Panel member name: LTK
[31] = target: Tyrosine-protein kinase JAK3 (Homo sapiens, UniProt P52333)
[32] = target: Cyclin-dependent kinase 19 (Homo sapiens, UniProt Q9BWU1); assay: Navigating the Kinome. Panel member name: CDC2L6
[33] = target: cAMP-dependent protein kinase catalytic subunit alpha (Homo sapiens, UniProt P17612)
[34] = target: Tyrosine-protein kinase receptor TYRO3 (Homo sapiens, UniProt Q06418);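 note: TYRO3 value obtained as one member of a kinome-wide profiling panel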
[35] = target: Cyclin-dependent kinase 9 (Homo sapiens, UniProt P50750);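 note: value from the CDK9 entry of a kinome-spanning kinase panel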
[36] = target: Tyrosine-protein kinase JAK2 (Homo sapiens, UniProt O60674);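 note: JAK2 tested as one member of a kinase panel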
[37] = target: Insulin-like growth factor 1 receptor (Homo sapiens, UniProt P08069); assay: Navigating the Kinome. Panel member name: IGF1R
[38] = target: Tyrosine-protein kinase Fyn (Homo sapiens, UniProt P06241)
[39] = target: Glycogen synthase kinase-3 beta (Homo sapiens, UniProt P49841);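 note: value comes from a broad kinome profiling panel, with GSK3B as the panel member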
[40] = target: 5'-AMP-activated protein kinase catalytic subunit alpha-1 (Homo sapiens, UniProt Q13131)
[41] = target: Serine/threonine-protein kinase TAO1 (Homo sapiens, UniProt Q7L7X3)
Aurora kinase A = Aurora kinase A (Homo sapiens, UniProt O14965);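 note: value from the Navigating the Kinome kinase panel profiling, panel entry STK6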
[42] = target: Tyrosine-protein kinase Lck (Homo sapiens, UniProt P06239);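 note: lck was assayed as one member of a kinase panel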
[43] = target: Mitogen-activated protein kinase 14 (Homo sapiens, UniProt Q16539);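 note: part of a kinome-wide panel, MAPK14 entry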
[44] = target: Inhibitor of nuclear factor kappa-B kinase subunit epsilon (Homo sapiens, UniProt Q14164); assay: Navigating the Kinome. Panel member name: IKBKE
[45] = target: Serine/threonine-protein kinase D3 (Homo sapiens, UniProt O94806);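 note: determined within a kinase panel screen, with PRKCN as the panel member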
[46] = target: Dual specificity protein kinase CLK4 (Homo sapiens, UniProt Q9HAZ1)
[47] = target: Death-associated protein kinase 3 (Homo sapiens, UniProt O43293);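 note: measured as one member of a kinome-wide profiling panel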
[48] = target: cAMP-dependent protein kinase catalytic subunit PRKX (Homo sapiens, UniProt P51817)
[49] = target: Dual specificity mitogen-activated protein kinase kinase 2 (Homo sapiens, UniProt P36507); assay: Navigating the Kinome. Panel member name: MAP2K2
Activin receptor type-1 = Activin receptor type-1 (Homo sapiens, UniProt Q04771); assay: Navigating the Kinome. Panel member name: ACVR1
[50] = target: Mast/stem cell growth factor receptor Kit (Homo sapiens, UniProt P10721);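 note: KIT entry within a kinase panel assay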
[51] = target: Dual specificity tyrosine-phosphorylation-regulated kinase 1B (Homo sapiens, UniProt Q9Y463); assay: Navigating the Kinome. Panel member name: DYRK1B
[52] = target: ALK tyrosine kinase receptor (Homo sapiens, UniProt Q9UM73);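 note: ALK tested as one member of a kinase panel screen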
[53] = target: Fibroblast growth factor receptor 1 (Homo sapiens, UniProt P11362)
[54] = target: Vascular endothelial growth factor receptor 2 (Homo sapiens, UniProt P35968)
[55] = target: Macrophage colony-stimulating factor 1 receptor (Homo sapiens, UniProt P07333);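 note: value comes from the Navigating the Kinome screening panel, CSF1R member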

Chain of Tyrosine-protein kinase receptor TYRO3 (Q06418 whole entry): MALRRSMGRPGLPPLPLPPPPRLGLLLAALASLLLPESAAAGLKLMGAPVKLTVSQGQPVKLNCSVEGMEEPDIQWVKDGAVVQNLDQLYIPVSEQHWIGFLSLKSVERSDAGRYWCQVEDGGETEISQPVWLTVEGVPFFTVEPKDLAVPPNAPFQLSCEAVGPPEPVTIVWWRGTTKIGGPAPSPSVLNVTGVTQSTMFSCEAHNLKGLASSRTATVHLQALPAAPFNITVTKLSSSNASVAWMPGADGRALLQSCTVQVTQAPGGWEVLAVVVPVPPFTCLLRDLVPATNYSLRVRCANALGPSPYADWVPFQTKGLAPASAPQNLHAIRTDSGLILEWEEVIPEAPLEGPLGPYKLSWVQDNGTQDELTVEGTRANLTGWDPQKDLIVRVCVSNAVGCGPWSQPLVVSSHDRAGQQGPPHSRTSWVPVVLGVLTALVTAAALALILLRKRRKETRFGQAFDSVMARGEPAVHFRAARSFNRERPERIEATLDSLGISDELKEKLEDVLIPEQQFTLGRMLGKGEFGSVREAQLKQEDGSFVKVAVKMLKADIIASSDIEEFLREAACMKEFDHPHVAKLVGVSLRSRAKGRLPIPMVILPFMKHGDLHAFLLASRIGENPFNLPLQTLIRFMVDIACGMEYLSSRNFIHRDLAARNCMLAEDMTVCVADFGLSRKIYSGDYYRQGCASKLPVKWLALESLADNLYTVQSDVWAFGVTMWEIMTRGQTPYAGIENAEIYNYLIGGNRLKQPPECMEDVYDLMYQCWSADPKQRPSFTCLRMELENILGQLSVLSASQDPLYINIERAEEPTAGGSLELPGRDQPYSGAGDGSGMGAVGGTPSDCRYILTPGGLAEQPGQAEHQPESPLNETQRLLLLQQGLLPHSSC
Chain of Dual specificity tyrosine-phosphorylation-regulated kinase 1B (Q9Y463 whole entry): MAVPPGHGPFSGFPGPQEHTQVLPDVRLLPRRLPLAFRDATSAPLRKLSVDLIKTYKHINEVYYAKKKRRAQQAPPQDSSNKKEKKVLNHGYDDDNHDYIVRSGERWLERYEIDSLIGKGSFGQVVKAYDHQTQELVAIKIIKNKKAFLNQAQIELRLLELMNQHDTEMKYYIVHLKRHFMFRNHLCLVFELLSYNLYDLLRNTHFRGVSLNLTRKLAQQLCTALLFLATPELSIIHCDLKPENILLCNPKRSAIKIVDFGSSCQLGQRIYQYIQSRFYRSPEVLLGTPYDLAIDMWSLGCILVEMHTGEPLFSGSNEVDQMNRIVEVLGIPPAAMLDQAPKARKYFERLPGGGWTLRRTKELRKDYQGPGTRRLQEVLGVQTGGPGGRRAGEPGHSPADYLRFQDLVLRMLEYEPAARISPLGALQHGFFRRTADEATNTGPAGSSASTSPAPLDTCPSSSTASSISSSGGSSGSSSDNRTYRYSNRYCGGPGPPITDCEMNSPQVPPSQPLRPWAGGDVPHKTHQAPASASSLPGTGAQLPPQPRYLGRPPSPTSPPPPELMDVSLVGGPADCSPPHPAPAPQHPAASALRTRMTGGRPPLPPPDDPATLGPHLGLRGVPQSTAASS
Chain of Dual specificity protein kinase CLK2 (P49760 whole entry): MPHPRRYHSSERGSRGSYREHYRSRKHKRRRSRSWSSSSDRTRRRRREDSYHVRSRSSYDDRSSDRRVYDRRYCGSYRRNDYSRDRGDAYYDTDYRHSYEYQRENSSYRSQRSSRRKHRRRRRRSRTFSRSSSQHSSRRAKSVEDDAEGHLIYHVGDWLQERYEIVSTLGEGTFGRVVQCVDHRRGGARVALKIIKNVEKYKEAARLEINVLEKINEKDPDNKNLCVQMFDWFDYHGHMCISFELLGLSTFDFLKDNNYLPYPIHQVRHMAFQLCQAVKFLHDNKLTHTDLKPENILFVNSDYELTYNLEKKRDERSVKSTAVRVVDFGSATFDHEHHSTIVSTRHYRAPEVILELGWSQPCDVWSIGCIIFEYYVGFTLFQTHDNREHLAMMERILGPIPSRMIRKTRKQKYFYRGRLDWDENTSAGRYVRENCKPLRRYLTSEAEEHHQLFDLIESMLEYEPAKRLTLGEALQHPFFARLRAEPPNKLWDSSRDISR
Chain of Dual specificity mitogen-activated protein kinase kinase 2 (P36507 whole entry): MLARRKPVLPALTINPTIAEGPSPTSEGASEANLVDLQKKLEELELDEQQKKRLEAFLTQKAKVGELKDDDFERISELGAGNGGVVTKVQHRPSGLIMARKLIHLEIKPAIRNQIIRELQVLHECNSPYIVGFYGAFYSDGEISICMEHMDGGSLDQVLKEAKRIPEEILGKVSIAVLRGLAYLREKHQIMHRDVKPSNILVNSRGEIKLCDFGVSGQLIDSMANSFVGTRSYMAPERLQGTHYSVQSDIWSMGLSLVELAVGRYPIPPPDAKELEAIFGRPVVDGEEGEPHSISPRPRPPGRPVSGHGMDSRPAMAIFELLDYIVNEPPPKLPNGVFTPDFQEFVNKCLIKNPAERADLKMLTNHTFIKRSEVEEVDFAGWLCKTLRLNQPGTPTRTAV
Chain of Cyclin-dependent kinase 8 (P49336 whole entry): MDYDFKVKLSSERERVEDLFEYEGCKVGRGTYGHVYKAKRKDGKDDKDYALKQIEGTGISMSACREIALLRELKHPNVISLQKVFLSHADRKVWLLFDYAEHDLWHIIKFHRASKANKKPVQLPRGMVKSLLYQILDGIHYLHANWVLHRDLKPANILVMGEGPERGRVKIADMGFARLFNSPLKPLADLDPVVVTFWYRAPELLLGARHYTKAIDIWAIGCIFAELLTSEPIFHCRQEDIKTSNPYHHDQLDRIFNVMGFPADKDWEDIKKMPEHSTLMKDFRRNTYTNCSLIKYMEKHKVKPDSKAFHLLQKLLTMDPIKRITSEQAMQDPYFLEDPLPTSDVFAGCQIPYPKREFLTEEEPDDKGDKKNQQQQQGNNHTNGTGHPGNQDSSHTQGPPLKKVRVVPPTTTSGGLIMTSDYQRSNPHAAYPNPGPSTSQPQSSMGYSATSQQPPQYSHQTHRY
Chain of Mitogen-activated protein kinase 9 (P45984 whole entry): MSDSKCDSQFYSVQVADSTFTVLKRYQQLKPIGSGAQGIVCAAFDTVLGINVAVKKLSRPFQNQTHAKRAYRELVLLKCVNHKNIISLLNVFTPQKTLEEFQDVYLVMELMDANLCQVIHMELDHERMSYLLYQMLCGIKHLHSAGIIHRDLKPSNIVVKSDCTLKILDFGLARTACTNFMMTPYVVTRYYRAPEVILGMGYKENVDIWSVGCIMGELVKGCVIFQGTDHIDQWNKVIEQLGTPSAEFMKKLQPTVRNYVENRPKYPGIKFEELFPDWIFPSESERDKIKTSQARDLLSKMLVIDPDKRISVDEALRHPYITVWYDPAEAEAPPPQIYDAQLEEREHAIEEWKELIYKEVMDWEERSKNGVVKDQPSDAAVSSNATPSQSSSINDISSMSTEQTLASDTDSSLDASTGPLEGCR
Chain of Mitogen-activated protein kinase kinase kinase kinase 5 (Q9Y4K4 whole entry): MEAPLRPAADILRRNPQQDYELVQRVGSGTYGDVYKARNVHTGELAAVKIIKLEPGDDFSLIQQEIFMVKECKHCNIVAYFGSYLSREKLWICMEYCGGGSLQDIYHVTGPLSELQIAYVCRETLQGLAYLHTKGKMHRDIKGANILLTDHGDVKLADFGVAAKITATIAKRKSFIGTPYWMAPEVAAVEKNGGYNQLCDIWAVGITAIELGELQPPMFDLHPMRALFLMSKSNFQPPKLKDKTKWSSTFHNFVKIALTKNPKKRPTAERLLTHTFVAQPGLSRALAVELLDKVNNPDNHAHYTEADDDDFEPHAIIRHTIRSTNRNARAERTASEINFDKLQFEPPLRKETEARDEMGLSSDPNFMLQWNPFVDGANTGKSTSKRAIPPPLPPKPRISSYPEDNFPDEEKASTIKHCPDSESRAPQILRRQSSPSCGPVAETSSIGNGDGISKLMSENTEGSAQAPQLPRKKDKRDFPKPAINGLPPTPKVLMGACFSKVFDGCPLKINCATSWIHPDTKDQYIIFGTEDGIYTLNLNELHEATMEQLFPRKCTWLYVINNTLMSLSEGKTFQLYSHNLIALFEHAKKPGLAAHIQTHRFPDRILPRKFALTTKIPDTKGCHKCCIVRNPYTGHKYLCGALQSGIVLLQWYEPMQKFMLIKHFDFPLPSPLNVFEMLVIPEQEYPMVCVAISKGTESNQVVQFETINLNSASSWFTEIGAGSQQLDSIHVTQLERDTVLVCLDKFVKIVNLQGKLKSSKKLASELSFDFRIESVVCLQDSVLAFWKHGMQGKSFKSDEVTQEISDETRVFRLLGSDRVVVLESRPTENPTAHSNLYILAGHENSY
Chain of Mitogen-activated protein kinase 8 (P45983 whole entry): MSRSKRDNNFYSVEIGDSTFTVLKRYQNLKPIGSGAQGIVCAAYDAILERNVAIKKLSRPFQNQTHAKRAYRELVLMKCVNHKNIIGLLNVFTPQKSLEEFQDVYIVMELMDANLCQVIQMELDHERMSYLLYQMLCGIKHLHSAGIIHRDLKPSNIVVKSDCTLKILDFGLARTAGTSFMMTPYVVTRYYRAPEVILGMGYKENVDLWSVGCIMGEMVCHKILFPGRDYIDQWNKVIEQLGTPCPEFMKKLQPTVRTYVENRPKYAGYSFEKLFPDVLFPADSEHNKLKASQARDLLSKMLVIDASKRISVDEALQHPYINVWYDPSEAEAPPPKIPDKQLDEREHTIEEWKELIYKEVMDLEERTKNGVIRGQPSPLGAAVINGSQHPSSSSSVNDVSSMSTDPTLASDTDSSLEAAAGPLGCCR
Chain of Dual specificity mitogen-activated protein kinase kinase 1 (Q02750 whole entry): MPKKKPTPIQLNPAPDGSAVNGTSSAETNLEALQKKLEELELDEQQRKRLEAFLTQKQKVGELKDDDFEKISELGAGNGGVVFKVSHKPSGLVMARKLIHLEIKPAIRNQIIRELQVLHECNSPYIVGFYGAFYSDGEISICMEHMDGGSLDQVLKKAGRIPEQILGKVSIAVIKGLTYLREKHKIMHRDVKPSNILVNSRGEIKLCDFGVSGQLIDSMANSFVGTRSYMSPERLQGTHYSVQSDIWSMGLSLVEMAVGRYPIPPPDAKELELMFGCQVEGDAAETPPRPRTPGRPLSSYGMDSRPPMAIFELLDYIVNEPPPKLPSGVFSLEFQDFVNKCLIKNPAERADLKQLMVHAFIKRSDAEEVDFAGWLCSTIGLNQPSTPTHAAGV

O=C(NCc1ccccc1)c1cc2ncc(Br)cn2n1
IC50 [1]: > 99 µM (inactive)
IC50 [2]: > 99 µM (inactive)

COc1cc2ncc3c(N)nc4c(C)c(N)ccc4c3c2cc1OC
Ki [3]: > 3.16 µM (inactive)
Ki [4]: > 5.01 µM (inactive)
Ki [5]: 0.0631 µM (active)
Ki [6]: > 3.16 µM (inactive)
Ki [7]: > 3.98 µM (inactive)
Ki [8]: > 3.98 µM (inactive)
Ki [9]: > 3.16 µM (inactive)
Ki [10]: > 3.16 µM (inactive)
Ki [11]: 3.16 µM (active)
Ki [12]: > 3.98 µM (inactive)
Ki [13]: > 3.98 µM (inactive)
Ki [14]: > 5.01 µM (inactive)
Ki [15]: > 6.31 µM (inactive)
Ki [16]: > 3.98 µM (inactive)
Ki [17]: > 2.51 µM (inactive)
Ki [18]: > 2.51 µM (inactive)
Ki [19]: > 3.98 µM (inactive)
Ki [20]: > 6.31 µM (inactive)
Ki [21]: > 3.98 µM (inactive)
Ki [22]: > 2 µM (inactive)
Ki [23]: > 3.16 µM (inactive)
Ki [24]: > 3.98 µM (inactive)
Ki (Activated CDC42 kinase 1): > 3.98 µM (inactive)
Ki [25]: > 3.16 µM (inactive)
Ki [26]: > 2.51 µM (inactive)
Ki [27]: > 3.98 µM (inactive)
Ki [28]: > 5.01 µM (inactive)
Ki [29]: > 7.94 µM (inactive)
Ki [30]: > 2.51 µM (inactive)
Ki [31]: > 5.01 µM (inactive)
Ki [32]: > 100 µM (inactive)
Ki [33]: > 1.26 µM (inactive)
Ki [34]: > 3.16 µM (inactive)
Ki [35]: > 1.58 µM (inactive)
Ki [36]: > 2.51 µM (inactive)
Ki [37]: > 2.51 µM (inactive)
Ki [38]: > 6.31 µM (inactive)
Ki [39]: > 3.98 µM (inactive)
Ki [40]: > 3.16 µM (inactive)
Ki [41]: > 6.31 µM (inactive)
Ki (Aurora kinase A): > 1.58 µM (inactive)
Ki [42]: > 6.31 µM (inactive)
Ki [43]: > 3.98 µM (inactive)
Ki [44]: > 3.16 µM (inactive)
Ki [45]: 0.158 µM (active)
Ki [46]: > 2.51 µM (inactive)
Ki [47]: 3.98 µM (active)
Ki [48]: > 3.16 µM (inactive)
Ki [49]: > 3.98 µM (inactive)
Ki (Activin receptor type-1): > 3.98 µM (inactive)
Ki [50]: > 3.98 µM (inactive)
Ki [51]: > 2.51 µM (inactive)
Ki [52]: > 6.31 µM (inactive)
Ki [53]: > 3.98 µM (inactive)
Ki [54]: > 2.51 µM (inactive)
Ki [55]: > 2.51 µM (inactive)
